According to patent publication US4983596A, “3-pyrrolidinylthio-1-azabicyclo[3.2.0]-hept-2-ene-2-carboxylic acid derivatives and their preparation” (Fujisawa Pharmaceutical Company, Ltd., priority 1988, dated 1991):
Converted amounts (≈) assume the structure as drawn.

Tested on: P. aeruginosa 26
Assay: in vitro Antimicrobial Activity, two-fold agar-plate dilution method (MIC)
Assay type: cell-based
Details: Pseudomonas aeruginosa; Test strain P. aeruginosa 26; heart infusion agar; 10^6 viable cells per ml; incubation at 37° C. for 20 hours; read-out: MIC (minimal inhibitory concentration)
Description: in vitro Antimicrobial Activity
in vitro Antimicrobial Activity was determined by the two-fold agar-plate dilution method as described blow. […]
The product of Example (2-1).

MIC: 0.39 µg/mL (≈ 1 µM)
Compound: C[C@@H](O)[C@H]1C(=O)N2C(C(=O)O)=C(S[C@@H]3CN[C@H](COCCF)C3)[C@H](C)[C@H]12 [Example (2-1), (4R,5S,6S)-3-[(2S,4S)-2-(2-fluoroethyloxymethyl)pyrrolidin-4-yl]thio-6-[(1R)-1-hydroxyethyl]-4-methyl-7-oxo-1-azabicyclo[3.2.0]hept-2-ene-2-carboxylic acid]
